Laboratory results published in ChEMBL document CHEMBL5331125, “Design, Synthesis, Molecular Docking, and Biological Evaluation of Novel Pimavanserin-Based Analogues as Potential Serotonin 5-HT2A Receptor Inverse Agonists” (J Med Chem, 2023).

Legend:
[1] = target: T1, 5-hydroxytryptamine receptor 2A (Homo sapiens, UniProt P28223); assay: Inverse agonist activity at human prefrontal cortex 5-HT2A receptor assessed as […] in [35S]GTPgammaS binding by liquid scintillation spectrometry analysis; type: functional, tissue-based
[2] = target: T1, 5-hydroxytryptamine receptor 2A; assay: Inverse agonist activity at human postmortem human brain membrane 5-HT2A receptor assessed as […] in [35S]GTPgammaS binding by liquid scintillation spectrometry analysis; type: functional, cell membranes
[3] = target: T1, 5-hydroxytryptamine receptor 2A; assay: Inverse agonist activity at human 5-HT2A receptor assessed as […] in [35S]GTPgammaS binding by liquid scintillation spectrometry analysis; type: functional
[4] = target: T1, 5-hydroxytryptamine receptor 2A; assay: Displacement of [3H]ketanserin from postmortem human brain membrane homogenate 5-HT2A receptor incubated for 120 mins by microbeta liquid scintillation counter analysis; type: cell membranes
[5] = target: T1, 5-hydroxytryptamine receptor 2A; assay: Inverse agonist activity at human 5-HT2A receptor expressed in cell membrane assessed as […] in [35S]GTPgammaS binding by liquid scintillation spectrometry analysis; type: functional, cell membranes
[6] = target: T1, 5-hydroxytryptamine receptor 2A; assay: Displacement of [3H]ketanserin from human 5-HT2A receptor incubated for 120 mins by microbeta liquid scintillation counter analysis
[7] = target: T1, 5-hydroxytryptamine receptor 2A; assay: Displacement of [3H]ketanserin from human brain cortex 5-HT2A receptor by Cheng-Prusoff equation analysis; type: tissue-based
[8] = target: T1, 5-hydroxytryptamine receptor 2A; assay: Displacement of [3H]ketanserin human recombinant 5-HT2A receptor by Cheng-Prusoff equation analysis

T1 sequence (P28223 whole entry): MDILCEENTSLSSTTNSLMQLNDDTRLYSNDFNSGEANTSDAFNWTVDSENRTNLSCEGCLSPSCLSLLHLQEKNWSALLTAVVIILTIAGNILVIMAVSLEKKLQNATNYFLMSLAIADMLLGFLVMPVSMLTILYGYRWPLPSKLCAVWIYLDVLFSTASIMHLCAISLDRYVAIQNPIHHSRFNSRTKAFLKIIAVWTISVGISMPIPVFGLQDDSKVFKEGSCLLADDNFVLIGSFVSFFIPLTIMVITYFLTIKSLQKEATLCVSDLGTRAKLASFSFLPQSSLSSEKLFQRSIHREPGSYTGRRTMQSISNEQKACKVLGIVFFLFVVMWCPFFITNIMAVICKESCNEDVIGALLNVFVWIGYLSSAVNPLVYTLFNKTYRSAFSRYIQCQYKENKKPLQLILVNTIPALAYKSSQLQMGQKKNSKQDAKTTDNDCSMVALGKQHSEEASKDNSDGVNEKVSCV

Row | IC50 [1] [pM] | IC50 [2] [pM] | IC50 [3] [pM] | Ki [4] [pM] | IC50 [5] [pM] | Ki [6] [pM] | Ki [7] [pM] | Ki [8] [pM] | SMILES
1 | 12600 | 316 | 158 | 5010 | 79400 | 158 |  |  | CC1COc2ccc(CNC(=O)N(Cc3ccc(F)cc3)C3CCN(C)CC3)cc21 (stereo not given)
2 | 12600 | 251 | 251 | 501 | 79400 | 31.6 |  |  | CC1Cc2cc(CNC(=O)N(Cc3ccc(F)cc3)C3CCN(C)CC3)ccc2O1 (stereo not given)
3 | 12600 | 50.1 | 63.1 | 50.1 | 79400 | 2.51 | 60 | 3 | CN1CCC(N(Cc2ccc(F)cc2)C(=O)NCc2ccc3c(c2)CC(C)(C)O3)CC1
